Results taken from US20260048063A1, “FUSED AMINO PYRIMIDINE COMPOUNDS FOR TREATMENT OF NEURODEGENERATIVE DISORDERS” (Ovid Therapeutics Inc., priority 2024, published 2026).

Key:
KCC2-S940A = target: T1, KCC2-S940A (Homo sapiens, UniProt Q9H2X9, S963A); test: Tl+ flux assay, HEK-293 cells expressing KCC2-S940A; format: cell-based
T1 construct: expressed in transfected cells; host or cells: HEK-293
T1 sequence (Q9H2X9 1-1116 isoform Q9H2X9-2 S940A): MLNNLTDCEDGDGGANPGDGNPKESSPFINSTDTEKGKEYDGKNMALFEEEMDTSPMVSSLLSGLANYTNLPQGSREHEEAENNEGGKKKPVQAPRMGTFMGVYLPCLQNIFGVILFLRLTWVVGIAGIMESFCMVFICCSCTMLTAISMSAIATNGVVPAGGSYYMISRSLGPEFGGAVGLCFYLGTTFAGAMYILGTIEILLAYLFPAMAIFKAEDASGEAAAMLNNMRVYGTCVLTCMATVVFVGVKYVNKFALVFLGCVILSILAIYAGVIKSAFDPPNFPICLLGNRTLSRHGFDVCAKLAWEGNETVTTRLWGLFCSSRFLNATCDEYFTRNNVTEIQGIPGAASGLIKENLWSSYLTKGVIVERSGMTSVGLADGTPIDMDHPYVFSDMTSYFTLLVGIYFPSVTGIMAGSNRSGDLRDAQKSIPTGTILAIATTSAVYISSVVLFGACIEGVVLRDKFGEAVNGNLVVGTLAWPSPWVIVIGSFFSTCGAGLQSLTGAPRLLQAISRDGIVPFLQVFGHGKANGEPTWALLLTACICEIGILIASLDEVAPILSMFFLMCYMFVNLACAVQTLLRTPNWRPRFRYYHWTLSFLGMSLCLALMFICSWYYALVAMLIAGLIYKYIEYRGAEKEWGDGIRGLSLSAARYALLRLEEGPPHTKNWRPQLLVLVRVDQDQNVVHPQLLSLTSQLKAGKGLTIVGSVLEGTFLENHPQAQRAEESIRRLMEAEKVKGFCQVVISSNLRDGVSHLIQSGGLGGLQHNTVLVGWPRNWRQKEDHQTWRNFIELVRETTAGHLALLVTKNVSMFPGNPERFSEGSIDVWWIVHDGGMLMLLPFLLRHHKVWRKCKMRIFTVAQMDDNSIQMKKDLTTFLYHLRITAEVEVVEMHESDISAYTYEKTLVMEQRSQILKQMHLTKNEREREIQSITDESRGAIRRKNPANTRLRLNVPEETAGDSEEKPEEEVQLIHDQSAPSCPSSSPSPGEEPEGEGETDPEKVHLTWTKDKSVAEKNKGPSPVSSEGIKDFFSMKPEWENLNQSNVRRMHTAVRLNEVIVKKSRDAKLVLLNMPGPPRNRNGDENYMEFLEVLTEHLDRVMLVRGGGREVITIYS
Description: FLIPR TI Flux assay. HEK-293 cells were washed with HBSS, and then incubated with loading buffer containing TI sensitive fluorescent dye (https://www.moleculardevices.com), 20 μM bumetanide 20 μM ouabain and 2.5 mM probenecid for 1 h at room temperature (RT) under control conditions or with drugs in the dark using a FlexStation 3 microplate reader (Molecular Devices) and imaged […] for 30 min. Stimulus buffer was added containing 5 mM K^+/0.5 mM Tl^+ and cells were imaged every 1.5 over a 190 second time course The initial rate Tl^+ uptake (Relative Fluorescence Units (RFU) per second) was determined following addition of the stimulus buffer as outlined previously (Conway et al., 2017, supra) (Lee et al., 2022, supra).
Several studies have shown that the activity and plasma membrane accumulation of KCC2 is potentiated via phosphorylation of S940, a process mediated by the activity of protein kinase C and protein phosphatase 1 (Lee et al., 2011, supra; Lee et al., J Biol Chem 282, 29777-29784 (2007); Moore et al., Proc. Natl. Acad. Sci. U.S.A. 115, 10166-10171 (2018); Moore et al., Trends Neurosci. 40, 555-571 (2017); Silayeva et al., Proc. Natl. Acad. Sci. U.S.A. 112, 3523-3528 (2015)). […] Compared to KCC2, effects on KCC3, KCC4, and NKCC1 were only seen at concentrations more than 35-fold that of KCC2 (>100 μM) (FIG. 1G).

[1] = tested on: panel of 144 protein kinases; test: SelectScreen protein kinase panel; format: biochemical; settings: 144 protein kinases incl. PKC isoforms, OSR1, SPAK, WNK
Description: Aliquots of HEK-293 cells expressing KCC2 were exposed to 30 μM SSA, heated from 37-55° C. The remaining level of soluble native KCC2 at each temperature was measured by immunoblotting and normalized to the level seen at 37° C. which was given a value of 1. […] This panel included protein kinase C isoforms, OSR1, SPAK (STK39) and with-no-lysine kinases (WNK), all of which phosphorylate KCC2 on multiple residues to indirectly modify its activity (Kahle et al., 2013, supra; Smalley et al., 2020, supra).

[2] = PK study, brain and plasma levels by LC-MS/MS; format: in vivo, mice
Description: PK studies. […] Plasma and brain samples were rapidly frozen on dry ice.
Drug accumulation in the brain was examined following SC injection (FIG. 4C; 50 mg/kg).

mice [3] = settings: in vivo
mice [4] = test: Kainic acid (KA) induced SE, EEG recording, pretreatment; format: in vivo; settings: 50 mg/kg SC pretreatment; vehicle 4.2±2.4×10^−6
Text: This model was chosen due to the similarities with patients undergoing SE, as KA-induced seizures become refractory to benzodiazepines (BDZs) within minutes (Betjemann and Lowenstein, Lancet Neurol 14, 615-624 (2015); Crawshaw and Cock, (2020a) [Seizure: Eur. J. Epilep. 75 (2020) 145-152] Seizure 80, 282; Lee et al., 2022, supra; Reddy and Kuruba, Int J Mol Sci 14, 18284-18318 (2013)).
EEG recordings and analysis. WT C57Bl/6J adult male mice (12 weeks) were anesthetized with isofluorane and implanted with EEG/EMG electrodes and allowed to recover for 7 days prior to experimentation. […] 2 h following KA administration mice were injected with a saturating concentration of diazepam (DZ) 10 mg/kg (IP) and recordings were extended for a further 60 min. […] LabChart 8 software was used for data analysis. […]
To provide quantitative insights on the effects of KA, raw EEG recordings were subject to Fast-Fourier transformation (8K FFT size, Hann (cosine-bell), 87.50% window overlap) for frequencies between 0-100 Hz 2 h after KA injection (Lee et al., 2022, supra).

mice [5] = test: KA induced SE, EEG, injection directly into the hippocampus; format: in vivo; settings: intrahippocampal pretreatment, DZ 2 h after KA
Description: 30 or 60 min later mice were injected with KA (20 mg/kg) and 2 h later with DZ as detailed above.

mice [6] = test: KA induced ongoing SE, EEG, treatment 2 h after KA; format: in vivo; settings: given IP 2 h after KA
Description: EEG recordings and analysis. WT C57Bl/6J adult male mice (12 weeks) were anesthetized with isofluorane and implanted with EEG/EMG electrodes and allowed to recover for 7 days prior to experimentation. […] 2 h following KA administration mice were injected with a saturating concentration of diazepam (DZ) 10 mg/kg (IP) and recordings were extended for a further 60 min. […] LabChart 8 software was used for data analysis. Epileptiform activity was identified by changes in the amplitude of electrographic activity characterized by consistent changes in the power of the Fast Fourier transform (FFT) of the EEG and abnormal activity characterized by periods of rhythmic spiking lasting longer than 30 s (Moore et al., 2017, supra; Silayeva et al., 2015, supra; Sivakumaran et al., J. Neurosci. 35, 8291-8296 (2015)).
To evaluate the potential of KCC2 activators to terminate ongoing SE, the KA model described above was employed. Mice were injected with KA (20 mg/Kg; IP). […] Spectral data were then subjected to FFT and the total EEG power between 1-100 Hz of the 2 h following KA treatment (pre-drug) and 30 min following their injection (post-drug) were compared (FIG. 6B). In mice treated with DZ alone variable effects were observed, from large increases to modest reductions in EEG power, but these effects were not significant (FIG. 6C; pre=1.1±0.2×10^−6, post=4.4±7.4×10^−7 V^2, p=0.214, n=13-14 mice). […]

mice [7] = test: TUNEL staining of hippocampal CA1 48 h after KA injection; format: in vivo
Description: To determine if KCC2 activators have an impact on the extent of neuronal injury, brain sections from mice that survived for 48 h after KA injection were subjected to Terminal deoxynucleotidyl transferase dUTP nick end (TUNEL) staining to visualize dead cells, and counterstained with DAPI. The number of TUNEL positive cells in the CA1 region of the hippocampus were then compared between treatment groups.

Compound | activity of KCC2-S940A construct (KCC2-S940A) | activity of the kinase panel [1] | brain level 8 h later ([2]; 50 mg/kg SC) | time of maximal concentration in the brain ([2]; 50 mg/kg SC) [h] | concentration at 30 min ([2]; mouse, in vivo, 25 mg/kg IV bolus, read-out: accumulation in brain and plasma, third value not assigned) [µM] | effects on mouse behavior in the open field (mice [3]) | total EEG power 2 h after KA (pre DZ) (mice [4]) | effect of DZ on seizure parameters in pretreated mice (mice [5]) | mean time to suppression (EEG power reduced to 50%) (mice [6]) [min] | TUNEL positive CA1 cells (mice [7]) [dead cells/ROI]
C[C@@H]1CN(c2nc3c(c(Nc4ccc(C5CCCCC5)cc4)n2)COC3)CCO1 [Compound A, (R)—N-(4-cyclohexylphenyl)-2-(2-methylmorpholino)-5,7-dihydrofuro[3,4-d]pyrimidin-4-amine] | increased the activity of KCC2-S940A construct | did not modify the activity | maintained | 4 | 11.2 | no gross effects on mouse behavior | 6.9±3.2×10^−7 V^2 | DZ significantly reduced seizure parameters | – | –
CN1C(=O)CN=C(c2ccccc2)c2cc(Cl)ccc21 [DZ, diazepam] | – | – | – | – | – | – | – | – | 32.5 ± 6.7 | 40.93±3.35
